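Growth conditions: 96-well plates. Treatment: test compound, 48 hours, 5 concentrations. Analysis: linear interpolation between bracketing concentrations; unreached endpoints set to highest concentration. GI50: concentration for 50% inhibition of growth. TGI: total growth inhibition.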
Legend:
Experiment in all cases: growth of human tumour cells (NCI), 48 h
T-47D breast = system: T-47D breast
HOP-92 NSCLC = system: HOP-92 NSCLC
NCI-H522 lung = system: NCI-H522 lung
M14 melanoma = system: M14 melanoma
U251 CNS = system: U251 CNS
CAKI-1 renal = system: CAKI-1 renal
KM12 colon = system: KM12 colon
MDA-MB-231 breast = system: MDA-MB-231 breast
UO-31 renal = system: UO-31 renal
CCRF-CEM leukemia = system: CCRF-CEM leukemia
SW-620 colon = system: SW-620 colon
MOLT-4 leukemia = system: MOLT-4 leukemia
A549 NSCLC = system: A549 NSCLC
NCI-H23 lung = system: NCI-H23 lung
EKVX NSCLC = system: EKVX NSCLC
SN12C renal = system: SN12C renal
HS 578T breast = system: HS 578T breast
SK-OV-3 ovarian = system: SK-OV-3 ovarian
HT29 colon = system: HT29 colon
786-0 renal = system: 786-0 renal
MDA-MB-435 = system: MDA-MB-435
SK-MEL-5 melanoma = system: SK-MEL-5 melanoma
SF-539 CNS = system: SF-539 CNS
BT-549 breast = system: BT-549 breast
NCI/ADR-RES ovarian = system: NCI/ADR-RES ovarian
DU-145 prostate = system: DU-145 prostate
HOP-62 NSCLC = system: HOP-62 NSCLC
OVCAR-4 ovarian = system: OVCAR-4 ovarian
COLO 205 colon = system: COLO 205 colon
HCC-2998 colon = system: HCC-2998 colon
OVCAR-5 ovarian = system: OVCAR-5 ovarian
RXF 393 renal = system: RXF 393 renal
PC-3 prostate = system: PC-3 prostate
OVCAR-8 ovarian = system: OVCAR-8 ovarian
SF-295 CNS = system: SF-295 CNS
SNB-19 CNS = system: SNB-19 CNS
SNB-75 CNS = system: SNB-75 CNS
NCI-H460 lung = system: NCI-H460 lung
A498 renal = system: A498 renal
LOX IMVI melanoma = system: LOX IMVI melanoma
NCI-H226 lung = system: NCI-H226 lung
OVCAR-3 ovarian = system: OVCAR-3 ovarian
TK-10 renal = system: TK-10 renal
MCF7 breast = system: MCF7 breast
SK-MEL-28 melanoma = system: SK-MEL-28 melanoma
K-562 leukemia = system: K-562 leukemia
HL-60(TB) leukemia = system: HL-60(TB) leukemia
UACC-257 melanoma = system: UACC-257 melanoma
SR leukemia = system: SR leukemia
ACHN renal = system: ACHN renal
HCT-116 colon = system: HCT-116 colon
UACC-62 melanoma = system: UACC-62 melanoma
SF-268 CNS = system: SF-268 CNS
IGROV1 ovarian = system: IGROV1 ovarian
MALME-3M melanoma = system: MALME-3M melanoma
SK-MEL-2 melanoma = system: SK-MEL-2 melanoma

CCN(CC)CCOc1nc2c3ccc(Cl)cc3nn2c2ccccc12
GI50 (T-47D breast): 3.51 µM
TGI (T-47D breast): 18.8 µM
GI50 (HOP-92 NSCLC): 1.4 µM
TGI (HOP-92 NSCLC): 6.41 µM
GI50 (NCI-H522 lung): 2.37 µM
TGI (NCI-H522 lung): 6.43 µM
GI50 (M14 melanoma): 1.76 µM
TGI (M14 melanoma): 3.95 µM
GI50 (U251 CNS): 2.11 µM
TGI (U251 CNS): 5.4 µM
GI50 (CAKI-1 renal): 1.45 µM
TGI (CAKI-1 renal): 2.97 µM
GI50 (KM12 colon): 1.96 µM
TGI (KM12 colon): 4.69 µM
GI50 (MDA-MB-231 breast): 2.02 µM
TGI (MDA-MB-231 breast): 7.03 µM
GI50 (UO-31 renal): 1.07 µM
TGI (UO-31 renal): 2.66 µM
GI50 (CCRF-CEM leukemia): 2.25 µM
TGI (CCRF-CEM leukemia): 12.8 µM
GI50 (SW-620 colon): 1.42 µM
TGI (SW-620 colon): 4.13 µM
GI50 (MOLT-4 leukemia): 2.77 µM
TGI (MOLT-4 leukemia): > 100 µM
GI50 (A549 NSCLC): 1.87 µM
TGI (A549 NSCLC): 4.63 µM
GI50 (NCI-H23 lung): 1.81 µM
TGI (NCI-H23 lung): 4.9 µM
GI50 (EKVX NSCLC): 2.62 µM
TGI (EKVX NSCLC): 9.71 µM
GI50 (SN12C renal): 2.21 µM
TGI (SN12C renal): 10.1 µM
GI50 (HS 578T breast): 2.59 µM
TGI (HS 578T breast): 11.3 µM
GI50 (SK-OV-3 ovarian): 2.49 µM
TGI (SK-OV-3 ovarian): 21.4 µM
GI50 (HT29 colon): 2.04 µM
TGI (HT29 colon): 9.9 µM
GI50 (786-0 renal): 1.69 µM
TGI (786-0 renal): 3.67 µM
GI50 (MDA-MB-435): 1.15 µM
TGI (MDA-MB-435): 2.79 µM
GI50 (SK-MEL-5 melanoma): 1.73 µM
TGI (SK-MEL-5 melanoma): 3.12 µM
GI50 (SF-539 CNS): 1.71 µM
TGI (SF-539 CNS): 3.84 µM
GI50 (BT-549 breast): 3.54 µM
TGI (BT-549 breast): 17.5 µM
GI50 (NCI/ADR-RES ovarian): 1.89 µM
TGI (NCI/ADR-RES ovarian): 8.24 µM
GI50 (DU-145 prostate): 2.4 µM
TGI (DU-145 prostate): 6.07 µM
GI50 (HOP-62 NSCLC): 2.38 µM
TGI (HOP-62 NSCLC): 12.5 µM
GI50 (OVCAR-4 ovarian): 2.78 µM
TGI (OVCAR-4 ovarian): 9.06 µM
GI50 (COLO 205 colon): 1.55 µM
TGI (COLO 205 colon): 4.55 µM
GI50 (HCC-2998 colon): 1.62 µM
TGI (HCC-2998 colon): 3.43 µM
GI50 (OVCAR-5 ovarian): 2.67 µM
TGI (OVCAR-5 ovarian): 10.3 µM
GI50 (RXF 393 renal): 1.75 µM
TGI (RXF 393 renal): 3.94 µM
GI50 (PC-3 prostate): 2.29 µM
TGI (PC-3 prostate): 9.94 µM
GI50 (OVCAR-8 ovarian): 2.64 µM
TGI (OVCAR-8 ovarian): 55.9 µM
GI50 (SF-295 CNS): 1.79 µM
TGI (SF-295 CNS): 4.18 µM
GI50 (SNB-19 CNS): 3.28 µM
TGI (SNB-19 CNS): 36.1 µM
GI50 (SNB-75 CNS): 1.58 µM
TGI (SNB-75 CNS): 8.35 µM
GI50 (NCI-H460 lung): 2.61 µM
TGI (NCI-H460 lung): 7.5 µM
GI50 (A498 renal): 1.62 µM
TGI (A498 renal): 3.05 µM
GI50 (LOX IMVI melanoma): 1.44 µM
TGI (LOX IMVI melanoma): 3.05 µM
GI50 (NCI-H226 lung): 2.06 µM
TGI (NCI-H226 lung): 10.2 µM
GI50 (OVCAR-3 ovarian): 2.86 µM
TGI (OVCAR-3 ovarian): 9.42 µM
GI50 (TK-10 renal): 3.88 µM
TGI (TK-10 renal): 16.1 µM
GI50 (MCF7 breast): 1.96 µM
TGI (MCF7 breast): 6.08 µM
GI50 (SK-MEL-28 melanoma): 1.89 µM
TGI (SK-MEL-28 melanoma): 3.57 µM
GI50 (K-562 leukemia): 2.73 µM
TGI (K-562 leukemia): > 100 µM
GI50 (HL-60(TB) leukemia): 2.06 µM
TGI (HL-60(TB) leukemia): 5.64 µM
GI50 (UACC-257 melanoma): 1.89 µM
TGI (UACC-257 melanoma): 4.02 µM
GI50 (SR leukemia): 2.12 µM
TGI (SR leukemia): 15.8 µM
GI50 (ACHN renal): 1.32 µM
TGI (ACHN renal): 3.36 µM
GI50 (HCT-116 colon): 1.4 µM
TGI (HCT-116 colon): 3.53 µM
GI50 (UACC-62 melanoma): 1.79 µM
TGI (UACC-62 melanoma): 3.7 µM
GI50 (SF-268 CNS): 2.89 µM
TGI (SF-268 CNS): 11 µM
GI50 (IGROV1 ovarian): 1.54 µM
TGI (IGROV1 ovarian): 4.62 µM
GI50 (MALME-3M melanoma): 1.6 µM
TGI (MALME-3M melanoma): 3.22 µM
GI50 (SK-MEL-2 melanoma): 2.16 µM
TGI (SK-MEL-2 melanoma): 4.94 µM

— PubChem BioAssay (NCI)
